Entries after “also recorded” stand apart in the source; their conditions may differ. Square brackets hold non-standard residues; d marks the D form. Ends that are not written are not given here. dOrn = NCCC[C@@H](N)C(=O)O; Orn = NCCC[C@H](N)C(=O)O
Experiments:
microorganisms [1] = experiment: Targeting peptide binding to target microorganisms (Tables 3, 10, 12); conditions: microorganism(s) the targeting peptide binds, preferably 1x PBS
microorganisms [2] = experiment: Morphology, biofilm and growth disrupting peptides (Table 5); assay type: cell-based; design: key: A: Peptide aggregates; B: Less hyphal formation; Clumps; Diffuse clumps and small polyps; F: Diffuse growth; H: Thin; I: Growth inhibition; Microcolony formation; Rippled; Small polyps; Thick; W: Halo formation on top, microlonies on bottom
Source text: In certain embodiments peptides that induce alterations in phenotype or other biological activities can also be used as antimicrobial effector moieties.

[3] = binding in aqueous buffers varied with peptide solubility
[4] = binding in aqueous buffers that varied with peptide solubility

| Substance | Target(s) (microorganisms [1]; [3]) | other results |
| --- | --- | --- |
| PF-643 (chain 1 VRCRL; chain 2 VRCRL; Peptide with targeting and/or antimicrobial activity) | Mycobacteria spp | Organism, effect (microorganisms [2]; E. faecalis): E. faecalis (R); Organism, effect (microorganisms [2]; MRSA): MRSA (C); Organism, effect (microorganisms [2]; S. pneumoniae): S. pneumoniae (R) |
| PF-644 (chain 1 TSGLIIGENGLNGL; chain 2 TSGLIIGENGLNGL; Peptide with targeting and/or antimicrobial activity) | Mycobacteria spp | Organism, effect (microorganisms [2]; S. pneumoniae): S. pneumoniae (H) |
| PF-645 (chain 1 SNSVQQG; chain 2 SNSVQQG; Peptide with targeting and/or antimicrobial activity) | Mycobacteria spp | Organism, effect (microorganisms [2]; C. albicans): C. albicans (B); Organism, effect (microorganisms [2]; S. pneumoniae): S. pneumoniae (I) |
| PF-646 (chain 1 APASPGRRPG; chain 2 APASPGRRPG; Peptide with targeting and/or antimicrobial activity) | Mycobacteria spp | Organism, effect (microorganisms [2]; C. albicans): C. albicans (B); Organism, effect (microorganisms [2]; S. pneumoniae): S. pneumoniae (H) |
| PF-647 (chain 1 GTFLGQKCAAATAS; chain 2 GTFLGQKCAAATAS; Peptide with targeting and/or antimicrobial activity) | Mycobacteria spp | Organism, effect (microorganisms [2]; C. albicans): C. albicans (B); Organism, effect (microorganisms [2]; S. pneumoniae): S. pneumoniae (R) |
| PF-649 (chain 1 CPRYPFVDVGPAGPWRARWRVGS; chain 2 CPRYPFVDVGPAGPWRARWRVGS; Peptide with targeting and/or antimicrobial activity) | Mycobacteria spp | Organism, effect (microorganisms [2]; E. faecalis): E. faecalis (R) |
| PF-651 (chain 1 PRWPTGAGRHR; chain 2 PRWPTGAGRHR; Peptide with targeting and/or antimicrobial activity) | Mycobacteria spp | Organism, effect (microorganisms [2]; S. pneumoniae): S. pneumoniae (H) |
| PF-652 (chain 1 FLAPARPDLQAQRQALAQ; chain 2 FLAPARPDLQAQRQALAQ; Peptide with targeting and/or antimicrobial activity) | Mycobacteria spp | Organism, effect (microorganisms [2]; S. pneumoniae): S. pneumoniae (A) |
| PF-653 (chain 1 QSVHPLPAETPVADVI; chain 2 QSVHPLPAETPVADVI; Peptide with targeting and/or antimicrobial activity) | Mycobacteria spp | Organism, effect (microorganisms [2]; S. pneumoniae): S. pneumoniae (H) |
| PF-654 (chain 1 LSGRLAGRR; chain 2 LSGRLAGRR; Peptide with targeting and/or antimicrobial activity) | Mycobacteria spp | Organism, effect (microorganisms [2]; C. albicans): C. albicans (B); Organism, effect (microorganisms [2]; MRSA): MRSA (R); Organism, effect (microorganisms [2]; S. pneumoniae): S. pneumoniae (A) |
| PF-656 (chain 1 RGMFVPFHDVDCVQ; chain 2 RGMFVPFHDVDCVQ; Peptide with targeting and/or antimicrobial activity) | Mycobacteria spp | Organism, effect (microorganisms [2]; MRSA): MRSA (R) |
| PF-C003 (FCSVDHDVITIAADHVKQGAEA; Peptide with targeting and/or antimicrobial activity) | A. naeslundii; also recorded: P. gingivalis; also recorded: S. mutans | – |
| PF-C008 (AQPRRTWLVNFGEVPSPGLTNDGMPDH; Peptide with targeting and/or antimicrobial activity) | A. naeslundii | – |
| PF-C034 (HPMPITVRSRKPGPLTAPSEH; Peptide with targeting and/or antimicrobial activity) | S. mutans; also recorded: E. coli | – |
| PF-C045 (FREGMGWPLSNEGSPTAPLPKHRNQV; Peptide with targeting and/or antimicrobial activity) | A. naeslundii; also recorded: T. denticola | – |
| PF-C050 (QGLARPVLRRIPL; Peptide with targeting and/or antimicrobial activity) | A. naeslundii; also recorded: S. mutans | – |
| PF-C063 (SHFRKGD; Peptide with targeting and/or antimicrobial activity) | A. naeslundii; also recorded: F. nucleatum; also recorded: S. mutans | – |
| PF-C068 (LNLFASI; Peptide with targeting and/or antimicrobial activity) | A. naeslundii; also recorded: F. nucleatum; also recorded: S. mutans | – |
| PF-C080 (INIPGLF; Peptide with targeting and/or antimicrobial activity) | A. naeslundii; also recorded: F. nucleatum; also recorded: S. mutans | – |
| PF-C093 (EKLGTMV; Peptide with targeting and/or antimicrobial activity) | A. naeslundii; also recorded: F. nucleatum; also recorded: S. mutans | – |
| PF-C134 (NELMKYPATLTATATTPGIKYSHLCSVCL; Peptide with targeting and/or antimicrobial activity) | A. naeslundii; also recorded: F. nucleatum; also recorded: P. gingivalis; also recorded: S. mutans; also recorded: T. denticola | – |

| Substance | Target(s) (microorganisms [1]; [3]) | other results |
| --- | --- | --- |
| PF-C160 (AASGFTYCASNGVWHPY; Peptide with targeting and/or antimicrobial activity) | F. nucleatum | – |
| PF-C259 (AEIQPHCLSVL; Peptide with targeting and/or antimicrobial activity) | F. nucleatum; also recorded: S. mutans | – |
| PF-C271 (FFPSYYSIIITYF; Peptide with targeting and/or antimicrobial activity) | A. naeslundii; also recorded: F. nucleatum; also recorded: P. gingivalis; also recorded: S. mutans; also recorded: T. denticola | – |
| PF-C273 (KNMLKRRMKQKRLFDEEDRLRVLSKYTKSYY; Peptide with targeting and/or antimicrobial activity) | A. naeslundii; also recorded: P. gingivalis; also recorded: S. mutans; also recorded: T. denticola | – |
| PF-C285 (FTIIELKKQKIKHGENNKKTAHPLNEPFCARA; Peptide with targeting and/or antimicrobial activity) | A. naeslundii; also recorded: F. nucleatum; also recorded: P. gingivalis; also recorded: S. mutans; also recorded: T. denticola | – |
| PF-S004 (VLLNIFRTLLEFFSPSNAPGAEDVPLPDTQA; Peptide with targeting and/or antimicrobial activity) | S. epidermidis and MRSA and C. jeikeium | – |
| PF-S007 (VVAGVVLLTALAVGSKRKEKKQIKEIQRLLAATR; Peptide with targeting and/or antimicrobial activity) | S. epidermidis and MRSA | – |
| PF-S015 (IENLERGARRPP; Peptide with targeting and/or antimicrobial activity) | S. epidermidis and MRSA and C. jeikeium | – |
| PF-S018 (GMPQIPRLRI; Peptide with targeting and/or antimicrobial activity) | S. epidermidis and M. luteus and C. albicans and MRSA and E. faecalis and C. jeikeium and C. jejuni | – |
| PF-S023 (MAEDERRALKRRTNRGRTRTRKRITV; Peptide with targeting and/or antimicrobial activity) | S. epidermidis and MRSA | – |
| PF-S024 (SKRGRKRKDRRKKKANHGKRPNS; Peptide with targeting and/or antimicrobial activity) | – | Target(s) (microorganisms [1]; [4]): Corynebacteria |
| PF-S026 (TELKYNGEEYLLLTQRDILAVIEK; Peptide with targeting and/or antimicrobial activity) | S. epidermidis and MRSA and C. jeikeium | – |
| PF-S029 (TSDTQSQSPWLFDNADIVNIYPVQLMHSSDND; Peptide with targeting and/or antimicrobial activity) | M. luteus; also recorded: P. mirabilis; also recorded: E. coli; also recorded: C. albicans; also recorded: C. jeikeium; also recorded: C. jejuni | – |
| Py Pf 12 ([dS]KG[Orn][dS]SGK[dOrn]ES; not fully specified (bridges)) | – | Target(s) (microorganisms [1]; [4]): P. fluorescens |
| TT-305 (ARNALNMRDVPVDAAIIGIIDGMDEE; Peptide with targeting and/or antimicrobial activity) | – | Target(s) (microorganisms [1]; [4]): F. nucleatum |
| TT-306 (KILNEAEGKLLKVIEKNGEIDIEEI; Peptide with targeting and/or antimicrobial activity) | – | Target(s) (microorganisms [1]; [4]): F. nucleatum |
| TT-307 (NGDKKAKEELDKWDEVIKELNIQF; Peptide with targeting and/or antimicrobial activity) | – | Target(s) (microorganisms [1]; [4]): F. nucleatum |
| TT-308 (GLVIIPNLIALIILFSQVRQQTKDYFSNPKLSSR; Peptide with targeting and/or antimicrobial activity) | – | Target(s) (microorganisms [1]; [4]): F. nucleatum |
| TT-309 (EPLPLTKYDKKDTEMKKVFKEILAGKVGYEKEEE; Peptide with targeting and/or antimicrobial activity) | – | Target(s) (microorganisms [1]; [4]): F. nucleatum |
| TT-310 (TKLKKNNKLLSAKKENTLHTKDK; Peptide with targeting and/or antimicrobial activity) | – | Target(s) (microorganisms [1]; [4]): F. nucleatum |
| TT-311 (AIFDAMHNL; Peptide with targeting and/or antimicrobial activity) | – | Target(s) (microorganisms [1]; [4]): S. mutans; also recorded: S. sobrinus |
